In PMC3713777 (Bioorganic & medicinal chemistry, 2010):

Legend:
[1] = molecular target: serotonin transporter (SERT) (Rattus norvegicus, UniProt P31652); experiment: [3H]citalopram binding assay; conditions: ratio of Ki values measured in this paper
SERT = SERT binding, inhibition of [3H]paroxetine; conditions: ratio of Ki values taken from reference 21
NET = conditions: read-out: NET (Ki); value taken from the literature; cited from earlier work

Chain of serotonin transporter (SERT) (P31652 whole entry): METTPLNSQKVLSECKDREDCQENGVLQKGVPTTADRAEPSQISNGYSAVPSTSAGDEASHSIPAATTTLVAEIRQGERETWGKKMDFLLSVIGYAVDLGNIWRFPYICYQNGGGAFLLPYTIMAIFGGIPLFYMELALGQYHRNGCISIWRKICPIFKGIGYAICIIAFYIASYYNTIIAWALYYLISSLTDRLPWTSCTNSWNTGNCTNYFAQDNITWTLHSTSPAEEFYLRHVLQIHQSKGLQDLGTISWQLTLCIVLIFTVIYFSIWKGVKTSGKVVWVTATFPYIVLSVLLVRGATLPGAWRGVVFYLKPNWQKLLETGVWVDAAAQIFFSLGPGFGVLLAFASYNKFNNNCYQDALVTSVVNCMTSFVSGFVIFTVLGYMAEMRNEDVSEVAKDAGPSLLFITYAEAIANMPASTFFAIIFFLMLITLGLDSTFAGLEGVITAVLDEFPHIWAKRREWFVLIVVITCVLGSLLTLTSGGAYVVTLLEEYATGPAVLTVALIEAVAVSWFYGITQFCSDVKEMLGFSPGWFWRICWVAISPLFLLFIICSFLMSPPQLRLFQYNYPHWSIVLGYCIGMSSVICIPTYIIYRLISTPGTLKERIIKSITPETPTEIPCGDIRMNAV

For `CCOC(=O)C1(c2ccc(I)cc2)CCNCC1.Cl` [Compound 4c, Ethyl 4-(4-iodophenyl)-piperidine-4-carboxylate], the DAT/SERT [1] was 1,400.
With `O=C(O)C(=O)O.O=C(OCc1ccc(Cl)c(Cl)c1)C1(c2ccc(I)cc2)CCNCC1` [Compound 14c, 3,4-Dichlorobenzyl 4-(4-iodophenyl) piperidine-4-carboxylate] the NET/SERT [1] was 1,000.
With `CCOC(=O)C1(c2ccc3ccccc3c2)CCN(C)CC1.Cl` [Compound 2d] the NET/SERT (SERT) was 9,900.
In the case of `CN1CCC(C(=O)OCc2ccc(Cl)c(Cl)c2)(c2ccc(Cl)c(Cl)c2)CC1.Cl` [Compound 8d, 3,4-Dichlorobenzyl 4-(3,4-dichlorophenyl)-1-methylpiperidine-4-carboxylate], the DAT/SERT [1] is reported as 1,200.
With `CCOC(=O)C1(c2ccc(I)cc2)CCN(C)CC1.Cl` [Compound 2c] the NET/SERT (SERT) was 25,000.
For `Cl.O=C(OCc1ccccc1)C1(c2ccc(Cl)c(Cl)c2)CCNCC1` [Compound 12a, Benzyl 4-(3,4-dichlorophenyl) piperidine-4-carboxylate], the DAT/SERT [1] was 100.
In the case of `CCOC(=O)C1(c2ccc(Cl)c(Cl)c2)CCN(C)CC1.Cl` [Compound 2a], the NET/SERT (SERT) is given as 4,000 and the Ki (NET) is given as 74.5 µM.
